Results: US20230183243A1, “HETEROARYL DERIVATIVES AND PHARMACEUTICAL COMPOSITION COMPRISING SAME AS ACTIVE INGREDIENT” (VORONOI INC., priority 2019, published 2023)

Tests used:
TTK = target: T1, TTK (Homo sapiens, UniProt P33981); assay: TTK enzyme activity, ADP-Glo kinase assay; format: biochemical; set-up: purchased SignalChem T20-10G; details: purified human TTK, ATP 10 μM, 25° C., 2 hours
T1 sequence (P33981 1-857): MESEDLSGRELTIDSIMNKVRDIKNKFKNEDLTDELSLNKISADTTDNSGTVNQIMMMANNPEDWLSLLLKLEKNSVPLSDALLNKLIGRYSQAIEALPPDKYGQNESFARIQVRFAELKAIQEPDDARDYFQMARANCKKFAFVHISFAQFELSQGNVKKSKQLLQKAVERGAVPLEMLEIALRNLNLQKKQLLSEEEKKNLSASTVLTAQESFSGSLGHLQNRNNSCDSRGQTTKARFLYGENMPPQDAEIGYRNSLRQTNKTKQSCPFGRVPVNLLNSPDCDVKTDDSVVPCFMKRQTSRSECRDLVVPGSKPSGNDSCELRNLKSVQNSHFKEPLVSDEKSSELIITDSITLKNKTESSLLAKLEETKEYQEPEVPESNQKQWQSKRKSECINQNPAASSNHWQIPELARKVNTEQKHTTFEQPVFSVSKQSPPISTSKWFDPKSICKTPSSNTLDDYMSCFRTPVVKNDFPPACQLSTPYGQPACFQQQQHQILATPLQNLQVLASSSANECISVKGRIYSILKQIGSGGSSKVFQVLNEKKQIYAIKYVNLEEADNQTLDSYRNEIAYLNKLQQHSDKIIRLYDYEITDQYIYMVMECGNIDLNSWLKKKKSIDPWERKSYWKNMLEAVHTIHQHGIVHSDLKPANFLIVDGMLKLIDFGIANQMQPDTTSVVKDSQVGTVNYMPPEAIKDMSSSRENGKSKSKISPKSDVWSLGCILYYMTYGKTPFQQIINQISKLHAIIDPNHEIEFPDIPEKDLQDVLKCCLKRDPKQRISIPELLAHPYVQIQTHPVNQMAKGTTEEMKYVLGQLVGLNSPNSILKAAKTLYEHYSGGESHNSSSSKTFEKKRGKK
Method in brief: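 ADP-Glo read-out; percent inhibition at each compound concentration was relative to the solvent-only control. The reactions contained 25 ng enzyme, 0.2 μg substrate and 10 μM ATP in 40 mM Tris-HCl pH 7.4 with 20 mM MgCl2, 0.5 mg/mL BSA and 50 μM DTT, and ran 2 h at 25 °C.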

MDA-MB-231 cells = assay: Inhibition of proliferation of triple-negative breast cancer cells, CellTiter-Glo; format: cell-based; details: Homo sapiens, 120 h; MDA-MB-231, cultured for 5 days
Method in brief: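 MDA-MB-231 cells pre-cultured 24 h (5% CO2, 37 °C), then exposed to compound for 5 days at 12 three-fold dilutions, final 10 μM to 0.05 nM. Viability read by CellTiter-Glo luminescence after 10 min at 37 °C; growth inhibition calculated relative to untreated solvent-control cells.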

SHP-77 = assay: Inhibition of proliferation of small cell lung cancer cells, CellTiter-Glo; format: cell-based; details: Homo sapiens, SHP77, 120 h; SHP-77, cultured for 5 days
Protocol: Specifically, the following test was performed to evaluate the inhibitory activity of the compound according to the present invention against the cell proliferation in the SCLC cells.
To check an inhibitory ability of cell growth in one SCLC cell line, a test was performed as follows. Cells were seeded in 180 μL of a culture broth at a density of 2,000 to 3,000 cells/well in a white clear bottom 96-well plate (Corning) according to the growth ability of each cell, and then cultured for 24 hours under conditions of 5% CO2 and 37° C. Thereafter, the compound was prepared by diluting a 10 mM stock solution three-fold with 100% DMSO at a total of 12 concentrations so that a peak concentration of the compound was in a range of 10 mM to 0.05 μM, and the diluted compound was then diluted in each cell culture medium so that a final concentration of the compound was in a range of 100 μM to 0.5 nM. 20 μL of a diluted solution diluted with a medium was added to the cell solution in which cells were seeded in the 96-well plate on the previous day so that a final concentration of the diluted solution was in a range of 10 μM to 0.05 nM. Each of the cells was cultured for 5 days. To check cell viability, a mixture provided in aCellTiter-Glo® Luminescent Cell Viability Assay Kit (Promega) was added to each of the cultured cell media, and cultured for another 10 minutes under a condition of 37° C. Then, a degree of luminescence (fluorescence) was measured. A degree of inhibition of the cell growth according to the treatment concentration of each of the compounds was calculated based on the fluorescence of the solvent control cells which were not treated with the compound. In this case, the concentration of each of the compounds inhibiting 50% of the cell growth was determined to be a GI50 (nM) value, and calculated using Prism (Version 7.01; GraphPad) software.

| IC50 (TTK) [nM] | GI50 (MDA-MB-231 cells) [nM] | GI50 (SHP-77) [nM] | SMILES |
| --- | --- | --- | --- |
| < 50 | < 100 | < 100 | Cn1cc(-c2ccc(Nc3nc(NC4CCOCC4)c4c(C#N)c[nH]c4n3)c3c2OCCO3)cn1 [Example 89, 2-((8-(1-methyl-1H-pyrazol-4-yl)-2,3-dihydrobenzo[b][1,4]dioxin-5-yl)amino)-4-((tetrahydro-2H-pyran-4-yl)amino)-7H-pyrrolo[2,3-d] pyrimidine-5-carbonitrile] |
| < 50 | < 100 | < 100 | COc1cc(-c2nncn2C)ccc1Nc1nc(NC2CCOCC2)c2c(C#N)c[nH]c2n1 [Example 90, 2-((2-methoxy-4-(4-methy1-4H-1,2,4-triazol-3-yl)phenyl)amino)-4-((tetrahydro-2H-pyran-4-yl)amino)-7H-pyrrolo[2,3-d] pyrimidine-5-carbonitrile] |
| < 50 | < 100 | < 100 | COc1cc(-c2c(C)noc2C)ccc1Nc1nc(NC2CCOCC2)c2c(C#N)c[nH]c2n1 [Example 91] |
| < 50 | < 100 | < 100 | COc1cc(-c2cnn(C)c2)ccc1Nc1nc(NC2CCOCC2)c2c(C#N)c[nH]c2n1 [Example 92, 2-((2-methoxy-4-(1-methyl-1H-pyrazol-4-yl)phenyl)amino)-4-((tetrahydro-2H-pyran-4-yl)amino)-7H-pyrrolo[2,3-d] pyrimidine-5-carbonitrile] |
| < 50 | < 100 | < 100 | COc1cc(-n2ccnc2C)ccc1Nc1nc(NC2CCOCC2)c2c(C#N)c[nH]c2n1 [Example 93, 2-((2-methoxy-4-(2-methyl-1H-imidazol-1-yl)phenyl)amino)-4-((tetrahydro-2H-pyran-4-yl)amino)-7H-pyrrolo[2,3-d] pyrimidine-5-carbonitrile] |
| < 50 | 100 to 1000 | < 100 | COCCNc1nc(Nc2ccc(-c3nncn3C)cc2OC)nc2[nH]cc(C#N)c12 [Example 95, 2-((2-methoxy-4-(4-methyl-4H-1,2,4-triazol-3-yl)phenyl)amino)-4-((2-methoxyethyl)amino)-7H-pyrrolo[2,3-d] pyrimidine-5-carbonitrile] |
| < 50 | < 100 | < 100 | COCCNc1nc(Nc2ccc(-c3c(C)noc3C)cc2OC)nc2[nH]cc(C#N)c12 [Example 96] |
| < 50 | < 100 | < 100 | COCCNc1nc(Nc2ccc(-c3cnn(C)c3)cc2OC)nc2[nH]cc(C#N)c12 [Example 97, 2-((2-methoxy-4-(1-methyl-1H-pyrazol-4-yl)phenyl)amino)-4-((2-methoxyethyl)amino)-7H-pyrrolo[2,3-d] pyrimidine-5-carbonitrile] |
| < 50 | < 100 | < 100 | COCCNc1nc(Nc2ccc(-n3ccnc3C)cc2OC)nc2[nH]cc(C#N)c12 [Example 98, 2-((2-methoxy-4-(2-methyl-1H-imidazol-1-yl)phenyl)amino)-4-((2-methoxyethyl)amino)-7H-pyrrolo[2,3-d] pyrimidine-5-carbonitrile] |
| < 50 | < 100 | < 100 | Cn1nccc1-c1ccc(Nc2nc(NC3CC3)c3c(C#N)c[nH]c3n2)c2c1OCCO2 [Example 99, 4-(cyclopropylamino)-2-((8-(1-methyl-1H-pyrazol-5-yl)-2,3-dihydrobenzo[b][1,4]dioxin-5-yl)amino)-7H-pyrrolo[2,3-d] pyrimidine-5-carbonitrile] |
| 50 to 200 | < 100 | < 100 | Cn1nccc1-c1ccc(Nc2nc(NCC3CCC3)c3c(C#N)c[nH]c3n2)c2c1OCCO2 [Example 100, 4-((cyclobutylmethyl)amino)-2-((8-(1-methyl-1H-pyrazol-5-yl)-2,3-dihydrobenzo[b][1,4]dioxin-5-yl)amino)-7H-pyrrolo[2,3-d] pyrimidine-5-carbonitrile] |
| < 50 | < 100 | < 100 | COC[C@@H](C)Nc1nc(Nc2ccc(-c3ccnn3C)c3c2OCCO3)nc2[nH]cc(C#N)c12 [Example 101] |
| 200 to 1000 | 100 to 1000 | 100 to 1000 | COc1cc(-c2c(C)noc2C)c(F)cc1Nc1nc(NC2CCOCC2)c2c(C#N)c[nH]c2n1 [Example 102, 2-((4-(3,5-dimethylisoxazol-4-yl)-5-fluoro-2-methoxyphenyl)amino)-4-((tetrahydro-2H-pyran-4-yl)amino)-7H-pyrrolo[2,3-d] pyrimidine-5-carbonitrile] |
| 200 to 1000 | 100 to 1000 | 100 to 1000 | COc1cc(-c2ccnn2C)c(F)cc1Nc1nc(NC2CCCC2)c2c(C#N)c[nH]c2n1 [Example 103, 4-(cyclopentylamino)-2-((5-fluoro-2-methoxy-4-(1-methyl-1H-pyrazol-5-yl)phenyl)amino)-7H-pyrrolo[2,3-d] pyrimidine-5-carbonitrile] |
| 50 to 200 | 100 to 1000 | 100 to 1000 | COc1cc(-c2c(C)noc2C)c(F)cc1Nc1nc(NC2CCCC2)c2c(C#N)c[nH]c2n1 [Example 104, 4-(cyclopentylamino)-2-((4-(3,5-dimethylisoxazol-4-yl)-5-fluoro-2-methoxyphenyl)amino)-7H-pyrrolo[2,3-d] pyrimidine-5-carbonitrile] |
| 50 to 200 | 100 to 1000 | 100 to 1000 | COc1cc(-c2ccnn2C)c(F)cc1Nc1nc(NC2CCCCC2)c2c(C#N)c[nH]c2n1 [Example 105, 4-(cyclohexylamino)-2-((5-fluoro-2-methoxy-4-(1-methyl-1H-pyrazol-5-yl)phenyl)amino)-7H-pyrrolo[2,3-d] pyrimidine-5-carbonitrile] |
| 50 to 200 | < 100 | < 100 | COc1cc(-c2ccnn2C)ccc1Nc1nc(NC2CCOCC2)c2c(C(F)(F)F)c[nH]c2n1 [Example 106, N^2-(2-methoxy-4-(1-methyl-1H-pyrazol-5-yl)phenyl)-N^4-(tetrahydro-2H-pyran-4-yl)-5-(trifluoromethy1)-7H-pyrrolo[2,3-d] pyrimidine-2,4-diamine] |
| 50 to 200 | < 100 | < 100 | Cn1nccc1-c1ccc(Nc2nc(NC3CCOCC3)c3c(C(F)(F)F)c[nH]c3n2)c2c1OCCO2 [Example 107, N^2-(8-(1-methyl-1H-pyrazol-5-yl)-2,3-dihydrobenzo[b][1,4]dioxin-5-yl)-N^4-(tetrahydro-2H-pyran-4-yl)-5-(trifluoromethyl)-7H-pyrrolo[2,3-d] pyrimidine-2,4-diamine] |
| < 50 | 100 to 1000 | 100 to 1000 | O=C1CCCN1c1ccc(Nc2nc(NC3CCOCC3)c3c(C(F)(F)F)c[nH]c3n2)c2c1OCCO2 [Example 108, 1-(8-((4-((tetrahydro-2H-pyran-4-yl)amino)-5-(trifluoromethyl)-7H-pyrrolo[2,3-d]pyrimidin-2-yl)amino)-2,3-dihydrobenzo[b][1,4]dioxin-5-yl)pyrrolidin-2-one] |
